In patent US12146131B2, “Testing apparatus and testing method” (HITACHI HIGH-TECH CORPORATION, priority 2019, dated 2024):

Legend:
Format in all cases: cell-based
Pseudomonas aeruginosa [1] = assay: drug sensitivity test, bacterial area value from time-series microscopic images (image processing of second embodiment); details: cultured 12 hours, FIG. 10
Excerpt: (§1) In a drug sensitivity test for bacteria, it is important to measure properties of bacteria and increase or decrease in the number of bacteria, and in a third embodiment, for example, an example applied to the drug sensitivity test will be described. Also in the third embodiment, the fine particle testing apparatus 100 described in the first embodiment can be used. However, the sample solution 108 contains bacteria, a medium component necessary for growth of the bacteria, and an antimicrobial agent to be tested. The fine particle testing apparatus 100 is temperature-adjusted to a temperature suitable for growth of the bacteria, for example, 37° C. Further, a plate having 96 holes or 384 holes can be used as the testing plate 102.
In the fine particle testing apparatus 100, an image is acquired by focusing the lens 104 on the vicinity of the well bottom surface of the testing plate 102 for each imaging. However, in a case where the fine particles are bacteria, in particular, highly motile bacteria, even if adjustment is performed for each imaging so as to focus on one well each time, an image with a clear contour may not be acquired, resulting in an image as illustrated in FIGS. 8A to 8B. As an example of such a case, a measurement example using Pseudomonas aeruginosa considered to have high motility as a bacterium different from the result of FIG. 9 will be described (see FIG. 10). […]

Pseudomonas aeruginosa [2] = assay: drug sensitivity test, turbidity measurement after 18 hours of culture; details: turbidity after 18 hours from start of culture
bacteria [3] = assay: drug sensitivity test, turbidity measurement of the well after 18 hours of culture; details: turbidity after 18 hours from start of culture
Excerpt: as §1, with “Further, a plate having 96 holes or 384 holes can be used as the testing plate 102.” left out
Here, the sensitivity of this bacterium to ampicillin/sulbactam is found to be “proliferation” at a concentration of 0.5/0.25 μg/mL and “suppression” at a concentration of 32/16 μg/mL by turbidity measurement of the well after 18 hours from the start of culture. […] This example has shown that proliferation/suppression is determined at two concentrations of the antimicrobial agent, but actually, the concentration of the drug is more finely changed to determine proliferation/suppression. The minimum antimicrobial agent concentration is referred to as minimum inhibitory concentration (MIC), and the MIC is preferably calculated based on the result of proliferation/suppression. […]

bacteria [4] = assay: drug sensitivity test, bacterial area value from time-series microscopic images (image processing of first embodiment); details: FIG. 9
Excerpt: as §1
FIG. 9 is a diagram illustrating a relationship of the area of a bacterial region corresponding to the sum of area values of fine particles obtained by executing the processing of steps 200 to 204 (image processing of the first embodiment) on a plurality of time-series images obtained by the imaging part 105 of the fine particle testing apparatus 100. This measurement result is a result of imaging bacteria cultured for 8 hours in a culture solution containing ampicillin/sulbactam at concentrations of 0.5/0.25 μg/mL and 32/16 μg/mL.

Substance | bacterial area value over time (Pseudomonas aeruginosa [1]; gentamicin 0.12 μg/mL) | bacterial area value over time (Pseudomonas aeruginosa [1]; gentamicin 8 μg/mL) | sensitivity of bacterium (proliferation/suppression) (Pseudomonas aeruginosa [2]; gentamicin 0.12 μg/mL) | sensitivity of bacterium (proliferation/suppression) (Pseudomonas aeruginosa [2]; gentamicin 8 μg/mL) | sensitivity of bacterium (proliferation/suppression) (bacteria [3]; ampicillin/sulbactam 0.5/0.25 μg/mL) | sensitivity of bacterium (proliferation/suppression) (bacteria [3]; ampicillin/sulbactam 32/16 μg/mL) | bacterial area value over time (bacteria [4]; ampicillin/sulbactam 0.5/0.25 μg/mL, cultured 8 hours) | bacterial area value over time (bacteria [4]; ampicillin/sulbactam 32/16 μg/mL, within 8 hours from start of culture)
gentamicin | starts to increase exponentially after 4 hours from the start of culture | slightly increases | proliferation | suppression | – | – | – | –
ampicillin/sulbactam | – | – | – | – | proliferation | suppression | starts to increase exponentially after 2 hours from the start of culture | substantially unchanged from the initial value
